# Results taken from patent EP4813463A2, “TYK2 INHIBITORS AND COMPOSITIONS AND METHODS THEREOF” (Lynk Pharmaceuticals Co. Ltd., priority 2023, dated 2024).
# Where two headings read alike, the source gives them in different places.
# What was measured:
# [1] = Pharmacokinetic study in rats; format: in vivo; details: rat, plasma, Sprague-Dawley rats, solution
# Description: Pharmacokinetic profiles of test articles were evaluated in fasted mouse, Sprague-Dawley rats and Beagle dogs. After dosing, blood samples were collected at each time point. For IV injection group, time points were set at 5, 15, 30 min, and then 1, 2, 4, 8 and 24 hours after dosing. For oral gavage group,#time points were set at 15, 30 min, and then 1, 2, 4, 8, and 24 hours. Blood was collected into appropriately labeled tubes containing K2EDTA as the anticoagulant. Plasma was obtained within 1 hours of blood collection by centrifugation at 8000×g and 4 °C for 6 minutes, and then stored at -20 °C until analyzed by LC/MS/MS for quantification. PK parameter values, including, but not necessarily limited to, the maximum plasma concentrations (Cmax), the time to reach the maximum concentrations (Tmax), and the area under the plasma concentration vs. time curve (AUC) from time zero to 24-hour (AUC0-24h) were determined using WinNonlin program. Table 17. […]
# [2] = Mice colon pharmacokinetic studies; format: in vivo; details: mouse, female Balb/c mice, oral gavage, 10 mg/kg; for half-life: read-out: Plasma T1/2 (converted)
# Description: Pharmacokinetic studies were investigated using female Balb/c mice to determine plasma and colon exposure of tested compounds. Compounds were administrated via oral gavage in a formulation of 0.5% Methocel (A4M) + 0.1% Tween80 in water to Balb/c mic. Animals were anesthetized at the designated time points, plasma, colon tissue and colonic contents samples were collected. Tissue samples were homogenized using MeOH : PBS(1:1). All samples were analyzed by LC-MS/MS.
# IFNa pSTAT1 = assay: Phosphorylation of STAT1 inhibition in CCF-STTG1 cells by Jess; format: cell-based; details: Homo sapiens, 0.5 h; CCF-STTG1 astrocyte cells, IFNα induction 30 mins, Jess western; read-out: Jess_CCF-STTG1 IC50 (IFNa pSTAT1)
# Description: Seeding HMC3 cells into 12-well plate and incubate overnight. Pre-stimulation with recombinant human IFNα (Sino biological, H08Y), treat cells with compound with different concentration for 1hr. After compound treatment, stimulate HMC3 cells with 50ng/mL hINFα for another 1 hour (for CCF-STTG1 cells IFNα induction time is 30 mins). And then wash cells with DPBS once gently and lyse cells with pre-cooled RIPA buffer (Sigma, R0278-500ML) for 30min on ice to harvest cells. Centrifuge cell lysate for 20 mins at 12000rpm with freezer centrifuge (Thermo Scientific, Heraeus Fresco 21) to extract protein. Prepare samples with Jess Simple Wes kit (SM-WO04) and then run western blot on Jess simple western system (Protein simple, JS-4631). Collect data and analyzed with GraphPad Prism.
# [3] = Brain pharmacokinetic studies in dogs; format: in vivo, Beagle dogs; details: for AUC / Kp: Beagle dogs, iv, 2 mg/kg, solution; for AUC: AUC0-4h; for Kp: read-out: Brain AUC/Systemic AUC; for brain exposure in Dogs: result in words
# Description: Pharmacokinetic profiles of test articles were evaluated in Beagle dogs. Different kinds of formulations were designed to ensure test articles fully dissolved and wouldn't precipitate in 1:10 SGF or FaSSIF dilution. The animal was restrained manually at the designated time points, approximately 500 µL of blood sample was collected via cephalic vein into K2EDTA tubes. The blood samples were maintained in wet ice first and centrifuged to obtain plasma (2000g, 4°C, 5 min) within 15 minutes post sampling. The animal was euthanized with pure […] inhalation. Shave the hair on the back of head and neck, and clean the skin of the area with iodine and 75% ethanol. Inject about 4-5 L saline from carotid artery for perfusion. Brain was collected after the perfusion fluid (saline) was gradually clarified. Dry the tissue on filtrate paper on ice, and then weigh the brain tissue and store at -70°C for later analysis. […] Table 15. Systemic Pharmacokinetic Parameters in Beagle Dogs
# Caco-2 cell lines = assay: Caco-2 cell permeability; format: in vitro ADME; details: Caco-2; result in words
# Description: Compounds permeability was evaluated using Caco-2 cell lines. HBSS buffer was used as transfer buffer. Appropriate dosing and receiver solutions were applied to the donor and receiver chambers to initiate the transport assay in apical to basolateral (A to B) or basolateral to apical (B to A) directions. Compounds were tested at 10.0 µM in the absence of p-gp inhibitor bidirectionally in duplicates. After incubation at 37°C for 90 mins, donor and receiver samples were analyzed by LC-MS/MS. The intestinal absorption potential was assessed using Papp value and efflux ratio.
# [4] = Brain pharmacokinetic studies in rats; format: in vivo, Sprague-Dawley rats; details: for half-life / Kp / AUC: rats, iv, 3 mg/kg, solution; for Kp: read-out: Brain AUC/Systemic AUC; for brain exposure in Rats: result in words
# [5] = plasma, read-out: Plasma AUC0-24
# [6] = colon tissue, read-out: Colon AUC0-24
# [7] = colonic contents, read-out: Colon content AUC0-24
# [8] = dog, systemic (plasma), read-out: AUC
# [9] = Sprague-Dawley, rat, systemic (plasma)
# [10] = Sprague-Dawley, rat, systemic (plasma), read-out: AUC
smiles,measurement,setting,value
"[2H]C([2H])([2H])NC(=O)c1cnc(NC(=O)C2CC2)cc1Nc1nn(C)c2ccc([C@H](OC([2H])([2H])[2H])C(F)(F)F)c(OC)c12 [Example 55A, (S)-6-(cyclopropanecarboxamido)-4-((4-methoxy-1-methyl-5-(2,2,2-trifluoro-1-(methoxy-d3)ethyl)-1H-indazol-3-yl)amino)-N-(methyl-d3)nicotinamide]",AUC,"[1]; intravenous, 3 mg/kg",3650 ng·h/mL
same,Vd,"[1]; intravenous, 3 mg/kg",2.05 L/kg
same,clearance,"[1]; intravenous, 3 mg/kg",13.6 mL/min/kg
same,half-life,"[1]; intravenous, 3 mg/kg",154 min
same,AUC,"[1]; oral, 5 mg/kg",2950 ng·h/mL
same,Cmax,"[1]; oral, 5 mg/kg",409 ng/mL
same,bioavailability,"[1]; oral, 5 mg/kg",48.6%
same,half-life,"[1]; oral, 5 mg/kg",160 min
"[2H]C([2H])([2H])NC(=O)c1cnc(NC(=O)C2CC2)cc1Nc1nn(C)c2ccc([C@H](O)C(F)(F)F)c(OC)c12 [Example 49A, (S)-6-(cyclopropanecarboxamido)-4-((4-methoxy-1-methyl-5-(2,2,2-trifluoro-1-hydroxyethyl)-1H-indazol-3-yl)amino)-N-(methyl-d3)nicotinamide]",Cmax,[2]; plasma,1340 ng/mL
same,Tmax,[2]; plasma,15 min
same,AUC(0-t),[2]; [5],1.22 µg·h/mL
same,half-life,[2]; plasma,61.8 min
same,AUC(0-t),[2]; [6],21.3 µg·h/mL
same,AUC(0-t),[2]; [7],1590 µg·h/mL
same,AUC,"[1]; intravenous, 2 mg/kg",904 ng·h/mL
same,Vd,"[1]; intravenous, 2 mg/kg",2.2 L/kg
same,clearance,"[1]; intravenous, 2 mg/kg",38.2 mL/min/kg
same,half-life,"[1]; intravenous, 2 mg/kg",62.4 min
same,AUC,"[1]; oral, 10 mg/kg",418 ng·h/mL
same,Cmax,"[1]; oral, 10 mg/kg",74.2 ng/mL
same,bioavailability,"[1]; oral, 10 mg/kg",9.25%
same,half-life,"[1]; oral, 10 mg/kg",188 min
"[2H]C([2H])([2H])NC(=O)c1cnc(NC(=O)C2CC2)cc1Nc1cnn2ccc([C@H](O)C(F)(F)F)c(OC)c12 [Example 7A, (S)-6-(cyclopropanecarboxamido)-4-((4-methoxy-5-(2,2,2-trifluoro-1-hydroxyethyl)pyrazolo[1,5-a]pyridin-3-yl)amino)-N-(methyl-d3)nicotinamide]",Cmax,[2]; plasma,426 ng/mL
same,Tmax,[2]; plasma,15 min
same,AUC(0-t),[2]; [5],0.599 µg·h/mL
same,half-life,[2]; plasma,105 min
same,AUC(0-t),[2]; [6],45.8 µg·h/mL
same,AUC(0-t),[2]; [7],1430 µg·h/mL
same,AUC,"[1]; intravenous, 1 mg/kg",317 ng·h/mL
same,Vd,"[1]; intravenous, 1 mg/kg",3.3 L/kg
same,clearance,"[1]; intravenous, 1 mg/kg",53.2 mL/min/kg
same,half-life,"[1]; intravenous, 1 mg/kg",50.4 min
same,AUC,"[1]; oral, 10 mg/kg",258 ng·h/mL
same,Cmax,"[1]; oral, 10 mg/kg",31.3 ng/mL
same,bioavailability,"[1]; oral, 10 mg/kg",8.1%
same,half-life,"[1]; oral, 10 mg/kg",295 min
same,IC50,IFNa pSTAT1,6.82 nM
"[2H]C([2H])([2H])O[C@@H](c1ccc2c(c(Nc3cc(NC(=O)C4CC4)ncc3C(=O)OC)nn2C)c1OC)C(F)(F)F [Example 50B, Methyl (S)-6-(cyclopropanecarboxamido)-4-((4-methoxy-1-methyl-5-(2,2,2-trifluoro-1-(methoxy-d3)ethyl)-1H-indazol-3-yl)amino)nicotinate]",AUC,[3]; brain,1856 ng·h/g
same,Kp,"[3]; dog, brain",1.36
same,AUC,[3]; [8],1370 ng·h/mL
same,brain exposure in Dogs,[3],good brain exposure
same,IC50,IFNa pSTAT1,3.73 nM
"COC(=O)c1cnc(NC(=O)[C@@H]2C[C@@H]2F)cc1Nc1nn(C)c2ccc(C(O)C(F)(F)F)c(OC)c12 (single isomer, unassigned) [Example 122A, Methyl 6-((1S,2S)-2-fluorocyclopropane-1-carboxamido)-4-((4-methoxy-1-methyl-5-((S*)-2,2,2-trifluoro-1-hydroxyethyl)-1H-indazol-3-yl)amino) nicotinate]","efflux ratio compared with the amide compounds 21,23,25,33,49A and BMS986165",Caco-2 cell lines,lower efflux ratio numbers
"COC(=O)c1cnc(NC(=O)C2CC2)cc1Nc1nn(C)c2ccc([C@H](OC)C(F)(F)F)c(OC)c12 [Example 45B, Methyl (S)-6-(cyclopropanecarboxamido)-4-((4-methoxy-1-methyl-5-(2,2,2-trifluoro-1-methoxyethyl)-1H-indazol-3-yl)amino)nicotinate]",AUC,[3]; brain,1963 ng·h/g
same,Kp,"[3]; dog, brain",1.12
same,AUC,[3]; [8],1760 ng·h/mL
same,brain exposure in Dogs,[3],good brain exposure
same,IC50,IFNa pSTAT1,3.5 nM
same,"efflux ratio compared with the amide compounds 21,23,25,33,49A and BMS986165",Caco-2 cell lines,lower efflux ratio numbers
same,half-life,"[4]; Sprague-Dawley, rat, brain",134 min
same,Kp,"[4]; Sprague-Dawley, rat, brain",0.96
same,half-life,[4]; [9],137 min
same,AUC,[4]; [10],1280 ng·h/mL
same,AUC,[4]; brain,1235 ng·h/g
same,brain exposure in Rats,[4],good brain exposure
"COC(=O)c1cnc(NC(=O)C2CC2)cc1Nc1nn(C)c2ccc([C@H](O)C(F)(F)F)c(OC)c12 [Example 48A, Methyl (S)-6-(cyclopropanecarboxamido)-4-((4-methoxy-1-methyl-5-(2,2,2-trifluoro-1-hydroxyethyl)-1H-indazol-3-yl)amino)nicotinate]",IC50,IFNa pSTAT1,0.74 nM
same,"efflux ratio compared with the amide compounds 21,23,25,33,49A and BMS986165",Caco-2 cell lines,lower efflux ratio numbers
same,half-life,"[4]; Sprague-Dawley, rat, brain",122 min
same,Kp,"[4]; Sprague-Dawley, rat, brain",0.19
same,half-life,[4]; [9],97.2 min
same,AUC,[4]; [10],1530 ng·h/mL
same,AUC,[4]; brain,288 ng·h/g
same,brain exposure in Rats,[4],good brain exposure
